Several values for one entry are separate records, joined by “and”; a condition that tells them apart may be missing. Identical values can stand only once.
Experiment: excess molar enthalpy (molar enthalpy of mixing); xn = mol fraction of the nth substance listed
Conditions: Liquid, Flow calorimetry

COC(C)=O [methyl ethanoate] + CC(C)O
excess molar enthalpy [kcal/mol]
Conditions	5000 kPa	10000 kPa
298.15 K, x1 = 0.1	0.133	0.132
298.15 K, x1 = 0.151	0.19	0.19
298.15 K, x1 = 0.199	0.235	–
298.15 K, x1 = 0.201	–	0.238
298.15 K, x1 = 0.249	0.276	–
298.15 K, x1 = 0.251	–	0.278
298.15 K, x1 = 0.299	0.308	–
298.15 K, x1 = 0.301	–	0.31
298.15 K, x1 = 0.349	0.334	–
298.15 K, x1 = 0.351	–	0.335
298.15 K, x1 = 0.4	–	0.354
298.15 K, x1 = 0.401	0.355	–
298.15 K, x1 = 0.45	0.367	0.366
298.15 K, x1 = 0.499	0.374	–
298.15 K, x1 = 0.501	–	0.372
298.15 K, x1 = 0.55	0.374	0.371
298.15 K, x1 = 0.599	0.367	–
298.15 K, x1 = 0.601	–	0.363
298.15 K, x1 = 0.649	0.352	–
298.15 K, x1 = 0.651	–	0.348
298.15 K, x1 = 0.699	–	0.327
298.15 K, x1 = 0.7	0.331	–
298.15 K, x1 = 0.749	–	0.296
298.15 K, x1 = 0.75	0.3	–
298.15 K, x1 = 0.799	0.262	0.258
298.15 K, x1 = 0.851	0.211	0.207
298.15 K, x1 = 0.9	0.154	0.15
298.15 K, x1 = 0.949	0.0855	0.081
308.15 K, x1 = 0.048	–	0.0745
308.15 K, x1 = 0.097	–	0.142
308.15 K, x1 = 0.145	–	0.199
308.15 K, x1 = 0.195	–	0.251
308.15 K, x1 = 0.243	–	0.293
308.15 K, x1 = 0.293	–	0.329
308.15 K, x1 = 0.342	–	0.357
308.15 K, x1 = 0.392	–	0.379
308.15 K, x1 = 0.441	–	0.393
308.15 K, x1 = 0.49	–	0.4
308.15 K, x1 = 0.541	–	0.4
308.15 K, x1 = 0.592	–	0.392
308.15 K, x1 = 0.643	–	0.376
308.15 K, x1 = 0.693	–	0.354
308.15 K, x1 = 0.743	–	0.324
308.15 K, x1 = 0.793	–	0.283
308.15 K, x1 = 0.897	–	0.169
308.15 K, x1 = 0.949	–	0.0908

CC(C)CO [2-methyl-1-propanol] + COC(C)=O
Conditions	excess molar enthalpy
298.15 K, 5000 kPa, x2 = 0.303	0.341 kcal/mol
298.15 K, 5000 kPa, x2 = 0.352	0.368 kcal/mol
298.15 K, 5000 kPa, x2 = 0.402	0.388 kcal/mol
298.15 K, 5000 kPa, x2 = 0.453	0.401 kcal/mol
298.15 K, 5000 kPa, x2 = 0.504	0.405 kcal/mol
298.15 K, 5000 kPa, x2 = 0.553	0.402 kcal/mol
298.15 K, 5000 kPa, x2 = 0.603	0.392 kcal/mol
298.15 K, 5000 kPa, x2 = 0.654	0.374 kcal/mol
298.15 K, 5000 kPa, x2 = 0.702	0.347 kcal/mol
298.15 K, 5000 kPa, x2 = 0.751	0.315 kcal/mol
298.15 K, 5000 kPa, x2 = 0.801	0.271 kcal/mol
298.15 K, 5000 kPa, x2 = 0.851	0.219 kcal/mol
298.15 K, 5000 kPa, x2 = 0.902	0.154 kcal/mol
298.15 K, 5000 kPa, x2 = 0.951	0.0827 kcal/mol
298.15 K, 10000 kPa, x2 = 0.049	0.0751 kcal/mol
298.15 K, 10000 kPa, x2 = 0.099	0.146 kcal/mol
298.15 K, 10000 kPa, x2 = 0.15	0.208 kcal/mol
298.15 K, 10000 kPa, x2 = 0.199	0.259 kcal/mol
298.15 K, 10000 kPa, x2 = 0.249	0.303 kcal/mol
298.15 K, 10000 kPa, x2 = 0.3	0.339 kcal/mol
298.15 K, 10000 kPa, x2 = 0.349	0.366 kcal/mol
298.15 K, 10000 kPa, x2 = 0.401	0.388 kcal/mol
298.15 K, 10000 kPa, x2 = 0.449	0.4 kcal/mol
298.15 K, 10000 kPa, x2 = 0.5	0.404 kcal/mol
298.15 K, 10000 kPa, x2 = 0.55	0.402 kcal/mol
298.15 K, 10000 kPa, x2 = 0.6	0.392 kcal/mol
298.15 K, 10000 kPa, x2 = 0.65	0.374 kcal/mol
298.15 K, 10000 kPa, x2 = 0.699	0.349 kcal/mol
298.15 K, 10000 kPa, x2 = 0.752	0.313 kcal/mol
298.15 K, 10000 kPa, x2 = 0.798	0.272 kcal/mol
298.15 K, 10000 kPa, x2 = 0.849	0.218 kcal/mol
298.15 K, 10000 kPa, x2 = 0.901	0.154 kcal/mol
298.15 K, 10000 kPa, x2 = 0.95	0.081 kcal/mol
308.15 K, 10000 kPa, x2 = 0.047	0.0714 kcal/mol
308.15 K, 10000 kPa, x2 = 0.098	0.148 kcal/mol
308.15 K, 10000 kPa, x2 = 0.146	0.213 kcal/mol
308.15 K, 10000 kPa, x2 = 0.193	0.266 kcal/mol
308.15 K, 10000 kPa, x2 = 0.243	0.314 kcal/mol
308.15 K, 10000 kPa, x2 = 0.291	0.352 kcal/mol
308.15 K, 10000 kPa, x2 = 0.343	0.383 kcal/mol
308.15 K, 10000 kPa, x2 = 0.39	0.404 kcal/mol
308.15 K, 10000 kPa, x2 = 0.492	0.426 kcal/mol and 0.423 kcal/mol
308.15 K, 10000 kPa, x2 = 0.541	0.424 kcal/mol
308.15 K, 10000 kPa, x2 = 0.591	0.415 kcal/mol
308.15 K, 10000 kPa, x2 = 0.641	0.398 kcal/mol
308.15 K, 10000 kPa, x2 = 0.692	0.371 kcal/mol
308.15 K, 10000 kPa, x2 = 0.744	0.335 kcal/mol
308.15 K, 10000 kPa, x2 = 0.794	0.291 kcal/mol
308.15 K, 10000 kPa, x2 = 0.896	0.168 kcal/mol
308.15 K, 10000 kPa, x2 = 0.947	0.0912 kcal/mol

Source: the NIST ThermoML archive (doi:10.1021/je050175u)
